Reference: patent publication US20080293712A1, “Benzo[C][2,7]Naphtyridine Derivatives, Methods of Making Thereof and Methods of Use Thereof” (WYETH, priority 2007, published 2008)

Assays:
Type in all cases: biochemical
[1] = molecular target: T1, PDK-1 (Homo sapiens, UniProt O15530); assay: PDK-1 kinase inhibition ELISA assay (phosphorylation of His6-tagged SGK1 S422D by PDK-1); details: PDK-1 ELISA, Table 11; read-out: Average IC50
T1 sequence (O15530 1-556): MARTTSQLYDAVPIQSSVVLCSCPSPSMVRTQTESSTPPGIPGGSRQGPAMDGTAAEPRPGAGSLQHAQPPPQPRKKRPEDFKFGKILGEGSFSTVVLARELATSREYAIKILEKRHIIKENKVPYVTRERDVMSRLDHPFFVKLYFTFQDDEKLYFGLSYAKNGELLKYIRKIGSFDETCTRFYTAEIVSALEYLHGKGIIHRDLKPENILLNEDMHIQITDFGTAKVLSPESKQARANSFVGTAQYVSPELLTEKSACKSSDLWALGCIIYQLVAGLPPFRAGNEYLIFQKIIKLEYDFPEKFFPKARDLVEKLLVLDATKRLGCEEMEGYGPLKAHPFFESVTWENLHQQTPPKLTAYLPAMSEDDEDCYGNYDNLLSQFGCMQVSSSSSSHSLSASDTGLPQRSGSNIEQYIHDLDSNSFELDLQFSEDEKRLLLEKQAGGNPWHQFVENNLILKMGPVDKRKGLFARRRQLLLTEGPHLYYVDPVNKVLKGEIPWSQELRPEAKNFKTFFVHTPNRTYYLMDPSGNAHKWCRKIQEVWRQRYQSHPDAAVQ

[2] = molecular target: PKA (Homo sapiens, UniProt P17612); assay: PKA kinase inhibition, Z'-LYTE FRET assay; details: 20 μM ATP
[3] = molecular target: Akt1 (Homo sapiens, UniProt P31749); assay: Akt1 kinase inhibition, Z'-LYTE FRET assay; details: 100 μM ATP
From the text: The ability of illustrative Benzo[c][2,7]naphthyridine Derivatives to inhibit PKA, Akt1, S6K in vitro can be determined using a Fluorescence Resonance Energy Transfer (FRET) assay, such as a Z′-LYTE™ Kinase Assay Platform, commercially available from Invitrogen (c.f. Rodems et al., ASSAY Drug Devel. Technol. 1:9-19 (2002) and Zhang et al., J. Biomol. Screen. 4:67-73 (1999)). Z′-Lyte™ assay is an in vitro FRET-based assay that utilizes differential sensitivity of phosphorylated and non-phosphorylated peptides to proteolytic cleavage. The peptide substrate (also available from Invitrogen for each of PKA, Akt1 and S6K) is labeled with two different fluorophores, a fluorescence donor at one end of the peptide and a fluorescence acceptor at the other end of the peptide. In the primary kinase reaction, the kinase phosphorylates the peptide substrate in the presence of ATP. In the secondary reaction, a site-specific protease recognizes and cleaves non-phosphorylated peptides, but not phosphorylated peptides. Cleavage disrupts FRET between the donor and acceptor fluorophores on the peptide, whereas uncleaved phosphorylated peptides maintain FRET. Based on a formula that uses the ratio of donor emission (at 460 nm) to acceptor emission (at […]) after excitation of the donor fluorophore at 400 nm, the extent of phosphorylation of the peptide substrates is calculated. IC50 values of illustrative Benzo[c][2,7]naphthyridine Derivatives, shown in Table 12, are calculated using LSW Data Analysis package add-in for Excel (Microsoft).

Chain of Akt1 (P31749 whole entry, species assumed): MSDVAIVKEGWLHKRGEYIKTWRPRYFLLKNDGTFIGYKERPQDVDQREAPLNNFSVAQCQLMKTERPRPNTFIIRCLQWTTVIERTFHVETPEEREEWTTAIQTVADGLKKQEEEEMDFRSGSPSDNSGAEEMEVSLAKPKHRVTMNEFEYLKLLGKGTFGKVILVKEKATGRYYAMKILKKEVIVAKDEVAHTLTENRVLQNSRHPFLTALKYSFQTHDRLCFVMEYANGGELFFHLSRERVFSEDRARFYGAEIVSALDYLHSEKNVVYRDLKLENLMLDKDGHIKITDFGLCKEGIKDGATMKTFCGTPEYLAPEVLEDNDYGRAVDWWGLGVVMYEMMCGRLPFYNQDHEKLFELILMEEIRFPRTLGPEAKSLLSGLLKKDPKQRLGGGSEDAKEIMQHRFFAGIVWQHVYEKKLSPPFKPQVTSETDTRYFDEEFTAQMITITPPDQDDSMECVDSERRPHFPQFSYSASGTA

Structure (SMILES) | IC50 [1] [nM] | IC50 [2] [nM] | IC50 [3] [nM]
COCCOc1cc2ncc3c(N)nc(-n4cnc(-c5ccccc5)c4)cc3c2cc1OC [Ia-41, 9-Methoxy-8-(2-methoxyethoxy)-2-(4-phenyl-1H-imidazol-1-yl)benzo[c]-2,7-naphthyridin-4-amine] | 2030 | > 20000 | 18000
COc1cc2ncc3c(N)nc(-n4ccnc4)cc3c2cc1OC [Ib-74, 2-(1H-imidazol-1-yl)-8,9-dimethoxybenzo[c]-2,7-naphthyridin-4-amine] |  | > 20000 | 180
CCN1CCN(CCC#Cc2ccc3c(c2)ncc2c(N)nc(-n4ccnc4)cc23)CC1 [Ia-35, 8-[4-(4-ethylpiperazin-1-yl)but-1-yn-1-yl]-2-(1H-imidazol-1-yl)benzo[c]-2,7-naphthyridin-4-amine] | 493 | 6000 | 2900
COc1cc2c(cc1N1CCC(N3CCCC3)CC1)ncc1c(N)nc(-c3cccnc3C)cc12 [Ia-19, 9-methoxy-2-(2-methylpyridin-3-yl)-8-(4-pyrrolidin-1-ylpiperidin-1-yl)benzo[c]-2,7-naphthyridin-4-amine] | > 5000 | > 10000 | 
COc1cc2c(cc1OCCCN1CCCC1)ncc1c(N)nc(-c3cccnc3C)cc12 [Ia-9, 9-Methoxy-2-(2-methylpyridin-3-yl)-8-(3-pyrrolidin-1-ylpropoxy)benzo[c]-2,7-naphthyridin-4-amine] | 2120 | > 10000 | 4000
COc1cc2c(cc1N1CCC(N3CCCC3)CC1)ncc1c(N)nc(-c3cccnc3)cc12 [Ia-20, 9-methoxy-2-pyridin-3-yl-8-(4-pyrrolidin-1-ylpiperidin-1-yl)benzo[c]-2,7-naphthyridin-4-amine] | 893 | > 20000 | 300
COc1cc2c(cc1OCCCN1CCN(C)CC1)ncc1c(N)nc(-n3ccnc3)cc12 [Ia-14, 2-(1H-imidazol-1-yl)-9-methoxy-8-(3-(4-methylpiperazin-1-yl)propoxy)benzo[c][2,7]naphthyridin-4-amine] | 356 | > 10000 | 350
CC(C)(C)OC(=O)N[C@H](COc1cncc(-c2cc3c(cnc4cc(C#CCCn5ccnc5)ccc43)c(N)n2)c1)Cc1ccccc1 [Ia-6, tert-Butyl-{(1S)-2-[(5-{4-amino-8-[4-(1H-imidazol-1-yl)but-1-yn-1-yl]benzo[c]-2,7-naphthyridin-2-yl}pyridin-3-yl)oxy]-1-benzylethyl}carbamate] | > 5000 | > 20000 | > 20000
COc1cc2c(cc1OCCCN1CCCC1)ncc1c(N)nc(-n3ccnc3)cc12 [Ia-15, 2-(1H-imidazol-1-yl)-9-methoxy-8-(3-(pyrrolidin-1-yl)propoxy)benzo[c][2,7]naphthyridin-4-amine] | 498 | > 10000 | 380
CN(C)CC#Cc1ccc2c(c1)ncc1c(N)nc(-n3ccnc3)cc12 [Ia-36, 8-[3-(Dimethylamino)prop-1-yn-1-yl]-2-(1H-imidazol-1-yl)benzo[c]-2,7-naphthyridin-4-amine] | 531 |  | 2000
CCN1CCN(CCC#Cc2ccc3ncc4c(N)nc(-n5ccnc5)cc4c3c2)CC1 [Ia-18, 9-[4-(4-Ethylpiperazin-1-yl)but-1-yn-1-yl]-2-(1H-imidazol-1-yl)benzo[c]-2,7-naphthyridin-4-amine] | > 3000 | > 10000 | > 10000
CC(C)(C)OC(=O)N[C@H](COc1cncc(-c2cc3c(cnc4cc(Br)ccc43)c(N)n2)c1)Cc1ccccc1 [Ia-7, tert-butyl ((1S)-2-{[5-(4-amino-8-bromobenzo[c]-2,7-naphthyridin-2-yl)pyridin-3-yl]oxy}-1-benzylethyl)carbamate] | > 5000 | > 20000 | > 20000
CCOc1cc2ncc3c(N)nc(-n4ccnc4)cc3c2cc1NC(C)=O [Ia-29, N-[4-amino-8-ethoxy-2-(1H-imidazol-1-yl)benzo[c]-2,7-naphthyridin-9-yl]acetamide] | 385 | > 5000 | > 5000
CCOc1cc2ncc3c(N)nc(-n4ccnc4)cc3c2cc1NC(=O)Nc1ccc(N(C)C)cc1 [Ia-27, N-[4-amino-8-ethoxy-2-(1H-imidazol-1-yl)benzo[c]-2,7-naphthyridin-9-yl]-N′-[4-(dimethylamino)phenyl]urea] | 617 | > 20000 | 16000
COc1cc2c(cc1OCC1CCN(C)CC1)ncc1c(N)nc(-c3cnccn3)cc12 [Ia-32] | 754 | > 20000 | 250
COc1cc2ncc3c(N)nc(-c4cncc(Nc5ccc(C#N)cc5)c4)cc3c2cc1OC [Ib-180, 4-{[5-(4-amino-8,9-dimethoxybenzo[c][2,7]naphthyridin-2-yl)pyridin-3-yl]amino}benzonitrile] | 600 |  | 
COCCOc1cc2ncc3c(N)nc(N(C)C4CCN(C)C4)cc3c2cc1OC (centres unmarked) [Ia-52, 9-methoxy-8-(2-methoxyethoxy)-N2-methyl-N^2-(1-methylpyrrolidin-3-yl)benzo[c]-2,7-naphthyridine-2,4-diamine] | 3280 |  | 

Further compounds by falling IC50 [1], results first:

IC50 [1] [nM] | IC50 [2] [nM] | IC50 [3] [nM] | Structure (SMILES)
212 | > 10000 | 3000 | COc1cc2ncc3c(N)nc(-c4cncc(OC[C@@H](N)Cc5ccc(OCc6ccccc6)cc5)c4)cc3c2cc1OC [Ib-54, 2-[5-({(2S)-2-amino-3-[4-(benzyloxy)phenyl]propyl}oxy)pyridin-3-yl]-8,9-dimethoxybenzo[c]-2,7-naphthyridin-4-amine]
205 | > 20000 | 2800 | COc1cc2ncc3c(N)nc(-n4cnc(CO)c4)cc3c2cc1OC [Ib-69, [1-(4-Amino-8,9-dimethoxybenzo[c]-2,7-naphthyridin-2-yl)-1H-imidazol-4-yl]methanol]
193 | > 20000 | 180 | COc1cc2c(cc1OCc1ccccc1)ncc1c(N)nc(-n3ccnc3)cc12 [Ia-34, 8-(Benzyloxy)-2-(1H-imidazol-1-yl)-9-methoxybenzo[c]-2,7-naphthyridin-4-amine]
179 | > 20000 | 15000 | Nc1nc(-n2ccnc2)cc2c1cnc1cc(C#CCCn3ccnc3)ccc12 [Ia-30, 2-(1H-imidazol-1-yl)-8-[4-(1H-imidazol-1-yl)but-1-yn-1-yl]benzo[c]-2,7-naphthyridin-4-amine]
170 | > 10000 | 380 | COc1cc2c(cc1OCCCN1CCOCC1)ncc1c(N)nc(-n3ccnc3)cc12 [Ia-16, 2-(1H-imidazol-1-yl)-9-methoxy-8-(3-morpholinopropoxy)benzo[c][2,7]naphthyridin-4-amine]
116 | 1250 | 230 | CCN1CCN(CC/C=C/c2ccc3c(c2)ncc2c(N)nc(-n4ccnc4)cc23)CC1 [Ia-25, 8-[(1E)-4-(4-ethylpiperazin-1-yl)but-1-en-1-yl]-2-(1H-imidazol-1-yl)benzo[c]-2,7-naphthyridin-4-amine]
108 | > 20000 | 350 | COCCOc1cc2ncc3c(N)nc(-n4cnc(C)c4)cc3c2cc1OC [Ia-42, 9-Methoxy-8-(2-methoxyethoxy)-2-(4-methyl-1H-imidazol-1-yl)benzo[c]-2,7-naphthyridin-4-amine]
40 |  |  | COc1cc2ncc3c(N)nc(-c4cncc(OC[C@@H](N)CN(C)c5cccc(Cl)c5)c4)cc3c2cc1OC [Ib-112, (2S)-3-{[5-(4-amino-8,9-dimethoxybenzo[c][2,7]naphthyridin-2-yl)pyridin-3-yl]oxy}-N1-(3-chlorophenyl)-N1-methylpropane-1,2-diamine]
9 |  |  | COc1cc2ncc3c(N)nc(-c4cncc(OC[C@@H](N)COC5=NCCN5)c4)cc3c2cc1OC [Ib-148, 2-(5-{[(2R)-2-amino-3-(4,5-dihydro-1H-imidazol-2-yloxy)propyl]oxy}pyridin-3-yl)-8,9-dimethoxybenzo[c][2,7]naphthyridin-4-amine]
5 |  |  | COc1cc2ncc3c(N)nc(-c4cncc(OCCN)c4)cc3c2cc1OC [Ib-11, 2-(5-(2-aminoethoxy)pyridin-3-yl)-8,9-dimethoxybenzo [c][2,7]naphthyridin-4-amine]
